Source: patent US7371741B2, “Estradiol derivatives and pharmaceutical compositions using same” (EntreMed, Inc., priority 2003, dated 2008)

Key:
[1] = test system: MDA-MB-231: breast cancer; test: In vitro anti-proliferative activity, BrdU incorporation, MDA-MB-231; type: cell-based; conditions: MDA-MB-231 cells, 50% inhibition of proliferation, BrdU incorporation into DNA
Procedure: (§1) Determination of in vitro anti-proliferative activity of substituted estradiol analogs: In vitro anti-proliferative or anti-mitogenic activity was determined using a commercially available cell-based assay in 96-well tissue culture plates with assessment of proliferation by evaluating DNA synthesis through incorporation into DNA of immuno-reactive (BrdU) nucleotides. The cell types used are commercially available (MDA-MB-231: breast cancer; U87-MG: glioblastoma; PC3: prostate cancer; HUVEC: non-transformed early passage human umbilical vein endothelial cells). These assays, and the many assay variations possible to determine in vitro anti-proliferative or anti-mitogenic activity, are well known to those skilled in the art. The concentration which causes 50% inhibition of proliferation (IC50) was estimated from a dose-response curve generally carried out with a range of concentrations from ≧100 microg/mL to ≦0.01 microg/mL.

PC3: prostate cancer = test: In vitro anti-proliferative activity, BrdU incorporation, PC3; type: cell-based; conditions: PC3 cells, 50% inhibition of proliferation, BrdU incorporation into DNA
Procedure: as §1

[2] = test system: chick embryo chorioallantoic membrane; test: Chick embryo chorioallantoic membrane (CAM) assay; type: in vivo; conditions: 100 μg methylcellulose disk, after 48 hours
From the text: Anti-proliferative activity can be evaluated in situ by testing the ability of an improved estradiol derivative to inhibit the proliferation of new blood vessel cells (angiogenesis). A suitable assay is the chick embryo chorioallantoic membrane (CAM) assay described by Crum et al. Science 230:1375 (1985). See also, U.S. Pat. No. 5,001,116, hereby incorporated by reference, which describes the CAM assay. Briefly, fertilized chick embryos are removed from their shell on day 3 or 4, and a methylcellulose disc containing the drug is implanted on the chorioallantoic membrane. The embryos are examined 48 hours later and, if a clear avascular zone appears around the methylcellulose disc, the diameter of that zone is measured.

[3] = test system: HUVEC: non-transformed early passage human umbilical vein endothelial cells; test: In vitro anti-proliferative activity, BrdU incorporation, HUVEC; type: cell-based; conditions: 50% inhibition of proliferation, BrdU incorporation into DNA
Procedure: as §1

U87-MG: glioblastoma = test: In vitro anti-proliferative activity, BrdU incorporation, U87-MG; type: cell-based; conditions: U87-MG cells, 50% inhibition of proliferation, BrdU incorporation into DNA
Procedure: as §1

SMILES	IC50 ([1]; Homo sapiens)	IC50 (PC3: prostate cancer; Homo sapiens, PC-3)	inhibition of cell mitosis and growth of new blood vessels (CAM) [2]	IC50 ([3]; Homo sapiens)	IC50 [1]	IC50 (U87-MG: glioblastoma)	IC50 (PC3: prostate cancer)	IC50 [3]	IC50 (U87-MG: glioblastoma; Homo sapiens, U-87 MG)
COc1cc2c(cc1O)CC[C@@H]1[C@@H]2CC[C@]2(C)[C@@H](O)CC[C@@H]12 [Compound 1, 2-methoxyestradiol, reference compound]	690 ± 140 nM	1080 ± 500 nM	inhibit cell mitosis and the growth of new blood vessels	680 ± 150 nM					
CC=C1CC[C@H]2[C@@H]3CCc4cc(NC=O)c(OC)cc4[C@H]3CC[C@]12C [Compound 112, 3-formamide-17-ethylene-2-methoxyestra-1,3,5(10)-triene]					560 ± 20 nM	770 ± 60 nM	740 ± 10 nM	580 nM	
COc1cc2c(cc1OS(N)(=O)=O)CC[C@@H]1[C@@H]2CC[C@]2(C)C(C)CC[C@@H]12 (stereo partly drawn) [Compound 118, 3-sulfamate-17-methyl-2-methoxyestra-1,3,5(10)-triene]					660 ± 100 nM	640 ± 10 nM	820 ± 60 nM	590 ± 100 nM	
CCOc1cc2c(cc1OS(N)(=O)=O)CC[C@@H]1[C@@H]2CC[C@]2(C)C(C)CC[C@@H]12 (stereo partly drawn) [Compound 119, 3-sulfamate-17-methyl-2-ethoxyestra-1,3,5(10)-triene]					1550 ± 390 nM	6410 nM	830 nM	910 ± 90 nM	
COc1cc2c(cc1N)CC[C@@H]1[C@@H]2CC[C@]2(C)C(C)CC[C@@H]12 (stereo partly drawn) [Compound 133, 3-amino-17-methyl-2-methoxyestra-1,3,5(10)-triene]	7310 ± 580 nM	7160 ± 1420 nM		2650 ± 770 nM					14870 ± 10 nM
COc1cc2c(cc1NC=O)CC[C@@H]1[C@@H]2CC[C@]2(C)C(C)CC[C@@H]12 (stereo partly drawn) [Compound 136, 3-formamide-17-methyl-2-methoxyestra-1,3,5(10)-triene]					610 nM	640 ± 10 nM	700 ± 100 nM	590 nM	
